BindingDB's records for patent US11365204 (Union therapeutics A/S, 2022)

molecular target: Tumor necrosis factor (Homo sapiens, UniProt P01375); experiment: TNF-alpha RELEASE
Procedure: Human peripheral blood mononuclear cells (PBMC) were isolated from fresh buffy coats by density centrifugation using lymphoprep tubes (Medinor). Frozen PBMC's were washed in serum free assay buffer (RPMI1640 with 25 mM HEPES, 1% pen/strep, […], 0.5% human serum albumin) and living cells counted. Lipopolysaccharide (1 microg/ml; SIGMA) was added to the cells which were then transferred to 384 well tissue culture plates (5×105 c/ml) containing titrated test compounds. The cells were incubated for 18 hours at 37° C. in serum free assay buffer and the level of TNFalpha in the supernatant was quantitated by AlphaLISA (PerkinElmer) by measuring fluorescence intensity at 615 nm.Results were expressed as IC50 values calculated from inhibition curves using as controls the secretion in LPS stimulated wells and the secretion in cells incubated with 10 microM of a PDE4 inhibitor reference compound.

Chain of Tumor necrosis factor (P01375 whole entry): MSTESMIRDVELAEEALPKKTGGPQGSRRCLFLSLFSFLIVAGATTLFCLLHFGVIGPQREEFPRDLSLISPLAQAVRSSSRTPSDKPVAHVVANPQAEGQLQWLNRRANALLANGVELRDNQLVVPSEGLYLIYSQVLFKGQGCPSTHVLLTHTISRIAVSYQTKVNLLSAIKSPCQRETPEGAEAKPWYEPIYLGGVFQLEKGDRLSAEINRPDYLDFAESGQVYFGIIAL

Structure (SMILES) | IC50
CC(=O)N1CC[C@H](Nc2nc(N3CC(OC(=O)c4cscn4)C3)nc3c2[S@+]([O-])CC3)C1 [US11365204, Example 73] | 0.3 µM
CC(=O)N1CCC(Nc2nc(N3CC(OC(=O)c4cscn4)C3)nc3c2[S+]([O-])CC3)CC1 (centres undefined) [US11365204, Example 76] | > 0.5 µM
CC(=O)N1CC[C@H](Nc2nc(N3CC(OC(=O)c4cnsc4)C3)nc3c2[S@+]([O-])CC3)C1 [US11365204, Example 72] | < 0.1 µM
CC(=O)N1CC[C@H](Nc2nc(N3CC(OC(=O)C4CCOCC4)C3)nc3c2[S@+]([O-])CC3)C1 [US11365204, Example 74] | 0.3 µM
